Source: patent US9732075B2, “Benzimidazole-proline derivatives” (IDORSIA PHARMACEUTICALS LTD, priority 2012, dated 2017)

Assays:
human orexin-1 receptor = human orexin-1 receptor (Homo sapiens (Human), UniProt O43613); test: In vitro assay: intracellular calcium measurements (FLIPR), antagonistic activity; format: cell-based; settings: CHO cells expressing human orexin-1 receptor, orexin-A agonist, geometric mean, read-out: IC50 Ox1
Method in brief: (§1)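 Dye-loaded CHO cells expressing either human orexin receptor are exposed to test antagonist for 120 min, then stimulated with orexin-A at 3 nM.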

human orexin-2 receptor = human orexin-2 receptor (Homo sapiens (Human), UniProt O43614); test: as above; format: cell-based; settings: CHO cells expressing human orexin-2 receptor, orexin-A agonist, geometric mean, read-out: IC50 Ox2
Method in brief: as §1

human orexin-2 receptor, sequence (O43614 whole entry): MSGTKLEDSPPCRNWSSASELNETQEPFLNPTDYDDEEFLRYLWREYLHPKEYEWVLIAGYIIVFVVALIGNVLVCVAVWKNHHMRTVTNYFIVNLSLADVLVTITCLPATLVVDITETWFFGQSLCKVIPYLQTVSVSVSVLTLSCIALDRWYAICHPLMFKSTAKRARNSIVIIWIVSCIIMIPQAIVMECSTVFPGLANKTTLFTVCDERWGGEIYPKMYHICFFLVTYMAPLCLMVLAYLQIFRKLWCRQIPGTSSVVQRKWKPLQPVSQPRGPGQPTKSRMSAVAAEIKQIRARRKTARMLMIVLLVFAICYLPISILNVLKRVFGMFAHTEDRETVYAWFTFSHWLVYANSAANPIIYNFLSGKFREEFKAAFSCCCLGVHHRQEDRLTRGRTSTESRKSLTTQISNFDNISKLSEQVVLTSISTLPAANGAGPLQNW
human orexin-1 receptor, sequence (O43613 whole entry): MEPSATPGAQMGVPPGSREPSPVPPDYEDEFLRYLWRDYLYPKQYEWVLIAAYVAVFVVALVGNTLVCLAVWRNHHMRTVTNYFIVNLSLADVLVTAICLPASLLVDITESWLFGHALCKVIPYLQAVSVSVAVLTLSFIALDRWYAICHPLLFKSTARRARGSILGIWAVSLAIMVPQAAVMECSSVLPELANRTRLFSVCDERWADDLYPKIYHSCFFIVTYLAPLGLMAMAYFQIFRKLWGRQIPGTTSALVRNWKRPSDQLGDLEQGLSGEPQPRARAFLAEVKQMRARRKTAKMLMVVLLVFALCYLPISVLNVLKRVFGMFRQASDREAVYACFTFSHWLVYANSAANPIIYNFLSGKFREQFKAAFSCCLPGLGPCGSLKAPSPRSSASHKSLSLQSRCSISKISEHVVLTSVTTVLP

IC50 (human orexin-1 receptor) [µM]	IC50 (human orexin-2 receptor) [µM]	Structure (SMILES)
0.269	0.019	C=C1C[C@@H](c2nc3cc(OC)ccc3[nH]2)N(C(=O)c2ccsc2-c2cccc(C)c2)C1 [Ex. 6.38]
0.097	0.008	CSc1ccc2nc([C@@H]3CCCN3C(=O)c3cc(C)ccc3-n3nccn3)[nH]c2c1 [Ex. 1.17]
0.0009	0.251	Cc1nc(C(=O)N2CC[C@H](C)[C@H]2c2nc3c(C)c(Cl)ccc3[nH]2)c(-c2cc(F)cc(F)c2)s1 [Ex. 4.67]
0.007	0.694	Cc1ccc(-c2ncccn2)c(C(=O)N2CC[C@H](C)[C@H]2c2nc3cc(Cl)cc(C)c3[nH]2)c1 [Ex. 4.182]
0.017	0.036	CSc1cccc2nc([C@@H]3CCCN3C(=O)c3cncnc3-c3ccc(C)c(C)c3)[nH]c12 [Ex. 1.83]
0.014	0.016	Cc1nc(C(=O)N2CCC[C@H]2c2nc3cc(Cl)c(C)cc3[nH]2)c(-c2ccccc2)s1 [Ex. 1.143]
0.053	1.17	Cc1cccc(-c2nc(C(=O)N3CCC[C@@]3(C)c3nc4cc(Cl)c(C(F)(F)F)cc4[nH]3)c(-c3ccc(F)cc3)s2)c1 [Ex. 5.287]
0.054	0.043	Cc1nc(C(=O)N2CCCC2c2nc3c(C)cccc3[nH]2)c(-c2cccc(Cl)c2)s1 (centres unmarked) [Ex. 1.96]
0.007	0.012	Cc1nc(C(=O)N2CCC[C@@]2(C)c2nc3c(C)c(C)c(Br)cc3[nH]2)c(-c2ccc(C)c(C)c2)s1 [Ex. 5.273]
0.002	0.308	Cc1cccc(-c2sc(C)nc2C(=O)N2CC[C@H](C)[C@H]2c2nc3c(C(F)(F)F)cccc3[nH]2)c1 [Ex. 4.158]
0.096	0.173	COc1cccc(-c2ccc(C)cc2C(=O)N2CCC[C@@]2(C)c2nc3cc(C)c(C)cc3n2CC2CC2)c1 [Ex. 7.49]
0.245	0.005	COc1ccc2nc([C@@H]3CCCN3C(=O)c3ccc(C)cc3-n3nccn3)[nH]c2c1 [Ex. 1.160]
0.02	0.28	Cc1ccc(-n2nccn2)c(C(=O)N2CCC[C@@]2(C)c2nc3cc(C(F)(F)F)ccc3[nH]2)n1 [Ex. 5.178]
0.024	0.042	Cc1ccc(-c2ccccc2F)c(C(=O)N2CCC[C@@]2(C)c2nc3cc(C)c(C)cc3n2C)c1 [Ex. 7.43]
0.069	0.124	Cc1ccc(-n2nccn2)c(C(=O)N2C[C@H](F)C[C@H]2c2nc3c(C)cccc3[nH]2)c1 [Ex. 2.11]
1.29	0.255	CO[C@H]1C[C@@H](c2nc3c(C)cccc3[nH]2)N(C(=O)c2nc(C)sc2-c2ccccc2)C1 [Ex. 3.3]
0.004	0.032	Cc1ccc(C(=O)N2CC[C@H](C)[C@H]2c2nc3cc(C)c(C)cc3[nH]2)c(-n2nccn2)c1 [Ex. 4.82]
0.263	0.065	CCc1ccc(-c2sc(C)nc2C(=O)N2CCC[C@H]2c2nc3ccc(SC)cc3[nH]2)cc1 [Ex. 1.42]
0.028	0.027	COc1cc(C(=O)N2C[C@H](OC)CC2(C)c2nc3c(C)c(Cl)ccc3[nH]2)c(-n2nccn2)cc1OC (some centres unmarked) [Ex. 3.52]
0.036	0.016	COc1cc(C(=O)N2CCC[C@H]2c2nc3ccc(SC)cc3[nH]2)c(-n2nccn2)cc1OC [Ex. 1.155]
0.692	0.121	COc1cccc(-c2sc(C)nc2C(=O)N2CCC[C@H]2c2nc3ccc(OC)cc3[nH]2)c1 [Ex. 1.20]
0.112	0.007	C=C1C[C@@H](c2nc3cccc(C)c3[nH]2)N(C(=O)c2nc(C)sc2-c2ccc(Cl)cc2)C1 [Ex. 6.109]
0.012	0.058	Cc1ccc(C(=O)N2CCC[C@@]2(C)c2nc3cc(C(F)(F)F)ccc3[nH]2)c(-n2nccn2)c1 [Ex. 5.171]
0.147	0.557	Cc1nc(C(=O)N2CCCC2c2nc3cc(Br)ccc3[nH]2)c(-c2ccccc2)s1 (centres unmarked) [Ex. 1.120]
0.006	2.35	Cc1nc(C(=O)N2CC[C@H](C)[C@H]2c2nc3cc(C)c(C)cc3[nH]2)c(-c2ccc(F)cc2)s1 [Ex. 4.90]
